This series is described as follows: Stability of the physical form on storage under ambient conditions. The conditions noted are these: stable = remains substantially in the same physical form for at least a month at 20° C./60% RH. The format is physicochemical. As for the experimental part: The term “stable,” as used herein, refers to the tendency to remain substantially in the same physical form for at least a month, preferably at least 6 months, more preferably at least a year, still more preferably at least 2 years, when stored under ambient conditions (20° C./60% RH) without external treatment. Substantially the same physical form in this context means that at least 50%, preferably at least 80% and more preferably at least 90% of the crystalline form remains.

With `O=C1C(O)=C([C@H]2CC[C@H](c3ccc(Cl)cc3)CC2)C(=O)c2ccccc21` [Form IPCA-ATO, trans-2-[4-(4-chlorophenyl)cyclohexyl]-3-hydroxy-1,4-naphthoquinone], the “Stability of the crystalline form” value was “stable”.

The values above are taken from patent publication US7847127B2, “Process for preparation of atovaquone and novel intermediates thereof” (IPCA Laboratories Limited, priority 2007, dated 2010).
